Earlier results in patent publication US5198423A, “Functional polypeptide containing a cell binding domain and a heparin binding domain of fibronectin” (Takara Shuzo Co., Ltd., priority 1989, dated 1993).

Test system: angiogenesis
Settings: chick embryo chorions, rabbit corneas, and hamster cheek pouches

Row | Compound | inhibition of angiogenesis, in words
1 | C[C@@H]1C[C@H]2[C@@H]3CCC4=CC(=O)C=C[C@]4(C)[C@@]3(F)[C@@H](O)C[C@]2(C)[C@@]1(O)C(=O)CO [dexamethasone] | found to inhibit angiogenesis
2 | C[C@]12C=CC(=O)C=C1CC[C@@H]1[C@@H]2[C@@H](O)C[C@@]2(C)[C@H]1CC[C@]2(O)C(=O)CO [prednisolone] | found to inhibit angiogenesis
3 | C[C@H]1C[C@@H]2[C@H]([C@@H](O)C[C@@]3(C)[C@H]2CC[C@]3(O)C(=O)CO)[C@@]2(C)C=CC(=O)C=C12 [6α-methylprednisolone] | found to inhibit angiogenesis
